Our source for the AC50 values is ChEMBL document CHEMBL5291721, “A preclinical secondary pharmacology resource illuminates target-adverse drug reaction associations of marketed drugs” (Nat Commun, 2023).

The target in assay [1] is T1, Muscarinic acetylcholine receptor M1 (Homo sapiens, UniProt P11229).
T1 sequence (P11229 whole entry): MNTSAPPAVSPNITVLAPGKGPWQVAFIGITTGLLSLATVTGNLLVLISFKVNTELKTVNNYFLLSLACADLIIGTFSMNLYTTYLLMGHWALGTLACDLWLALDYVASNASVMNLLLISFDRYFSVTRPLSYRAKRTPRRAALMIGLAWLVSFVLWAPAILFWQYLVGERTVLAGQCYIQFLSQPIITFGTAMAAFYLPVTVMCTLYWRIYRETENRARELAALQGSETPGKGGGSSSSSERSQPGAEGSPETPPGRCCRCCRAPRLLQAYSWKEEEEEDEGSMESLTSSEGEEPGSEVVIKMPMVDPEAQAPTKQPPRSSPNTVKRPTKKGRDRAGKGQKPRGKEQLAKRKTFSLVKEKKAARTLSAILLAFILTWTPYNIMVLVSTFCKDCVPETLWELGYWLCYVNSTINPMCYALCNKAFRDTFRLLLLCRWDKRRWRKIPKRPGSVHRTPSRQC

Assay [2] has as its target T2, Alpha-1A adrenergic receptor (Homo sapiens, UniProt P35348).
T2 sequence (P35348 whole entry): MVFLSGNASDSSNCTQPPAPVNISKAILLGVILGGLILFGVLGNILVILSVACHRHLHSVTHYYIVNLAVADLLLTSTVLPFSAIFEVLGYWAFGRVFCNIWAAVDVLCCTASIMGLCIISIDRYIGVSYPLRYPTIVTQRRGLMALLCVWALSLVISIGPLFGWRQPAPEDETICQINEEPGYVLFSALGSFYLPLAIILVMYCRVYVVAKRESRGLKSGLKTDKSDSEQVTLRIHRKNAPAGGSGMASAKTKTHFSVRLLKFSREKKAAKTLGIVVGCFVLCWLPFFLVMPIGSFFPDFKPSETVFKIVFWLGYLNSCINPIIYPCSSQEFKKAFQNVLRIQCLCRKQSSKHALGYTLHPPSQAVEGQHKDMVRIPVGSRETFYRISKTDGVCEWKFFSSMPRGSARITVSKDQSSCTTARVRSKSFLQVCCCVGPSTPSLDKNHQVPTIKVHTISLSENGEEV

Assay [3] concerns the target D(1A) dopamine receptor (Homo sapiens, UniProt P21728).
Assay [4] deals with T3, Alpha-2A adrenergic receptor (Homo sapiens, UniProt P08913).
T3 sequence (P08913 whole entry): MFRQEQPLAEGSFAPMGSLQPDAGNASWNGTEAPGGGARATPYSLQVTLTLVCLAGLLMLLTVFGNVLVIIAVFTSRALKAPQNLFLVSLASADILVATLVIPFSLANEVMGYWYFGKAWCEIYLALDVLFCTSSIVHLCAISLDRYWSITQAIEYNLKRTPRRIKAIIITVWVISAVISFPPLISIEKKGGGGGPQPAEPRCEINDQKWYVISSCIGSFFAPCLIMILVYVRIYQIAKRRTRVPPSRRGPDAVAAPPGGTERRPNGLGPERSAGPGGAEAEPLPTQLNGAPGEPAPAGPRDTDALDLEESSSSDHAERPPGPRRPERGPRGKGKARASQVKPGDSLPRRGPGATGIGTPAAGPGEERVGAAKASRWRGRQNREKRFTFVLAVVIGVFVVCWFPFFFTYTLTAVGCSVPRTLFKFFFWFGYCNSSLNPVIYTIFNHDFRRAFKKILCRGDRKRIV

Assay [5] deals with 5-hydroxytryptamine receptor 2B (Homo sapiens, UniProt P41595).
For assay [6], the target named is Voltage-dependent N-type calcium channel subunit alpha-1B (Rattus norvegicus, UniProt Q02294). Type of assay: functional.
Voltage-dependent N-type calcium channel subunit alpha-1B, sequence (Q02294 whole entry): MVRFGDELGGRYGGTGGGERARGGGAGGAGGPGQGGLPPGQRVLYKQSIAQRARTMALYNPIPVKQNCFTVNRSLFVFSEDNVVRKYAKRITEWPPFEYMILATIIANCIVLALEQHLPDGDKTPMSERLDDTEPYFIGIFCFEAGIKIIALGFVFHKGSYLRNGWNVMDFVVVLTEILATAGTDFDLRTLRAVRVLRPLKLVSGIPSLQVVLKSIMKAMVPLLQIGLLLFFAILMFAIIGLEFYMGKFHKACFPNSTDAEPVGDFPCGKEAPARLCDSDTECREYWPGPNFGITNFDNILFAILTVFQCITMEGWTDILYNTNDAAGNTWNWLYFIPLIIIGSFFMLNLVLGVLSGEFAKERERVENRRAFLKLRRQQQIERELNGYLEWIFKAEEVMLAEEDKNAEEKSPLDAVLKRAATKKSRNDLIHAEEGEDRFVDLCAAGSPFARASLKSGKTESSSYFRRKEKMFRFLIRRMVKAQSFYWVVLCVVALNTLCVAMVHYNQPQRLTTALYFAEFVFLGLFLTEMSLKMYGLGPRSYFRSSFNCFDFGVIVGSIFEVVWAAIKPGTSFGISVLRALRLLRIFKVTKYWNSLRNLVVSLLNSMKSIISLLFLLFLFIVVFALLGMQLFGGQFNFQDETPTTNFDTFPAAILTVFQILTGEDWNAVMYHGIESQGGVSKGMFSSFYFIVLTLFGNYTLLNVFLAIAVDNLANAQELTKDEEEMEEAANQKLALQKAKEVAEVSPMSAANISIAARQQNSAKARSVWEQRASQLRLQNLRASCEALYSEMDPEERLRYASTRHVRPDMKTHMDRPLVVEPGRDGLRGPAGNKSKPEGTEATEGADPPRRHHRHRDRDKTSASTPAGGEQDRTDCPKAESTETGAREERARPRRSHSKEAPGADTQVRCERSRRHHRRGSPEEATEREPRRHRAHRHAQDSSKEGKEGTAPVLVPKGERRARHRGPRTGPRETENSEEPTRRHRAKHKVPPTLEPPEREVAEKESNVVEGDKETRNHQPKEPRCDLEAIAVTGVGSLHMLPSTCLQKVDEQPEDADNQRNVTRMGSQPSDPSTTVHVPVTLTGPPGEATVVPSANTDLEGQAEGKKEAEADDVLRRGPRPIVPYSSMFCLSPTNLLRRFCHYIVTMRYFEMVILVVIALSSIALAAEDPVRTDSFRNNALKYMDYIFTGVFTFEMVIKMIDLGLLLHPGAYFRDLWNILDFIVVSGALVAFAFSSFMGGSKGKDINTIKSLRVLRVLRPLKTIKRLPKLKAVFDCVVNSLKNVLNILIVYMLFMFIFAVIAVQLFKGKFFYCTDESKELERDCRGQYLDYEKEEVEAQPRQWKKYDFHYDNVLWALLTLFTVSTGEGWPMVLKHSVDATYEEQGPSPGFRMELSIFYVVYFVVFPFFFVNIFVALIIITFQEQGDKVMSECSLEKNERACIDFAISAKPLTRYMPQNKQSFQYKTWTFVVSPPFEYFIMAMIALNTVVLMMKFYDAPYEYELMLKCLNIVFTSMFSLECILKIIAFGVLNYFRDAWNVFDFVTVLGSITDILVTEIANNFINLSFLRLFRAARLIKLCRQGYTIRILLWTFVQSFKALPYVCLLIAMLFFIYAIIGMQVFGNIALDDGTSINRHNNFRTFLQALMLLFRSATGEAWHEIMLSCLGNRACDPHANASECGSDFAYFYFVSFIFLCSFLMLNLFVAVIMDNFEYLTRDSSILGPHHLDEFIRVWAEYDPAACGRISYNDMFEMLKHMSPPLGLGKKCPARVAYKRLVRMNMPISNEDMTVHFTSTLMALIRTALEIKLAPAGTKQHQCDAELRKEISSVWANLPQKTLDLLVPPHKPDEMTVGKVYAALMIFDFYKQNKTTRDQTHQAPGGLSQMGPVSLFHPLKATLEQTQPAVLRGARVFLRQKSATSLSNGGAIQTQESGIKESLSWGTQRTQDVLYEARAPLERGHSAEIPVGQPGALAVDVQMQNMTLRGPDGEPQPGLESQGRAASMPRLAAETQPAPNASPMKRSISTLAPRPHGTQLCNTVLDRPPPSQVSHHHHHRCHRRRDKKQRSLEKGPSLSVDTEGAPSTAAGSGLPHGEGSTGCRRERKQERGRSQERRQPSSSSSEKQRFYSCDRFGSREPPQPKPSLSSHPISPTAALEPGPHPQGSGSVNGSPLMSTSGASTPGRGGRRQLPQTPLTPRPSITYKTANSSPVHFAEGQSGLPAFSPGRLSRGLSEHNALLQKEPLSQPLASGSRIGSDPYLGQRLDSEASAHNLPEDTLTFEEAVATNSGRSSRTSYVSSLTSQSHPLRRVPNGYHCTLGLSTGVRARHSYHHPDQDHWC
Assay [7] deals with T4, Muscarinic acetylcholine receptor M2 (Homo sapiens, UniProt P08172).
T4 sequence (P08172 whole entry): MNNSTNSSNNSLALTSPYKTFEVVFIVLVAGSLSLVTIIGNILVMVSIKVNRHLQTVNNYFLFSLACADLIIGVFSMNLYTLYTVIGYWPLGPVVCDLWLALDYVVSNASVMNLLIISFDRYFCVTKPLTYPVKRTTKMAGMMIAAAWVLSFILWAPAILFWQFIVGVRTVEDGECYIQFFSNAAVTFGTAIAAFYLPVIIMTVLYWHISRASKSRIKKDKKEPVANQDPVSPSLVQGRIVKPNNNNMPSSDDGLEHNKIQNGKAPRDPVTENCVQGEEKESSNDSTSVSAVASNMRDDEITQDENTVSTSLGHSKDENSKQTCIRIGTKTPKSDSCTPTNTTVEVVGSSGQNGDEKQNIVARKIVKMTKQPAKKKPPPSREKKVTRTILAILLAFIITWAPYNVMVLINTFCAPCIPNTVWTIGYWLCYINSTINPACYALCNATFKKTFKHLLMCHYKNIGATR

In assay [8] the target is T5, Gamma-aminobutyric acid receptor subunit alpha-1/alpha-2/beta-2/gamma-2 (Homo sapiens, UniProt P14867+P18507+P47869+P47870). It is filed as functional, cell-based.
T5 sequence (P14867 whole entry): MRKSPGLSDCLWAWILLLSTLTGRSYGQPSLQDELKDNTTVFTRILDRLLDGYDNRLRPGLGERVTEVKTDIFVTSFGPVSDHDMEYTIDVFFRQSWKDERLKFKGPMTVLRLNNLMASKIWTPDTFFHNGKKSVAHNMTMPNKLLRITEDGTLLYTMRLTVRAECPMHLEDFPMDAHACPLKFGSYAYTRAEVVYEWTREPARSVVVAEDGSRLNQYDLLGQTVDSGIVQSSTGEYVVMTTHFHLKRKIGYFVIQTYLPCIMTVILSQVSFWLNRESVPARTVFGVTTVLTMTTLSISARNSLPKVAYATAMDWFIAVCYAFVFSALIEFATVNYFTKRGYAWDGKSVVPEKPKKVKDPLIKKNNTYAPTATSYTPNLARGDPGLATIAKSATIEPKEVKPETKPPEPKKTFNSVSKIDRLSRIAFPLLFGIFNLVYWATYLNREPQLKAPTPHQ
T5 sequence (P47870 whole entry): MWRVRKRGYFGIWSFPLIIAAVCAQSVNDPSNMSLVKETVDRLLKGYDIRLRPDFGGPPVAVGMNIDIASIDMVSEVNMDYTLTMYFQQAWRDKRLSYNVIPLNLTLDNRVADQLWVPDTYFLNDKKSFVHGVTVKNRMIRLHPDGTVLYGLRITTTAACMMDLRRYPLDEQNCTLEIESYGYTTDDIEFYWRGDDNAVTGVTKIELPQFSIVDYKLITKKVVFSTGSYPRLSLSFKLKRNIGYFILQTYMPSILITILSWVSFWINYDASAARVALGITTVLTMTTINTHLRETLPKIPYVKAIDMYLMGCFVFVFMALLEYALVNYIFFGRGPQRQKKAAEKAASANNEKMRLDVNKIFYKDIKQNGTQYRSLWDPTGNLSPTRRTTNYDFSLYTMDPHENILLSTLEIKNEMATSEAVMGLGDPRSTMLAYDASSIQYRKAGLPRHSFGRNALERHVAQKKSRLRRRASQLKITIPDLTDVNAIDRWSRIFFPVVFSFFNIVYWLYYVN
T5 sequence (P18507 whole entry): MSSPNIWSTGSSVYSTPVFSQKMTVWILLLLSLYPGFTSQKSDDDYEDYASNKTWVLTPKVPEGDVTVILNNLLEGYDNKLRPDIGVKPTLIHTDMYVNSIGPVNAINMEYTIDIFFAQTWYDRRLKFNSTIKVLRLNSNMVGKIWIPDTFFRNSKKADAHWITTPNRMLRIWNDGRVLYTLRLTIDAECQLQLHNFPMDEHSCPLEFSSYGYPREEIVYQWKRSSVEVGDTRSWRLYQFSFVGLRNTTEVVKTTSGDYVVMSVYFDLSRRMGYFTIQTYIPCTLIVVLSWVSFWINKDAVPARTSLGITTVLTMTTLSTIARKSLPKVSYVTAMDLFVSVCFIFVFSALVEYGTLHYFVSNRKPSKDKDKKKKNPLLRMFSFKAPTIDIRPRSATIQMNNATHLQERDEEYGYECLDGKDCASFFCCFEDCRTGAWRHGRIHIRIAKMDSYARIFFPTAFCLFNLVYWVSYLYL
T5 sequence (P47869 whole entry): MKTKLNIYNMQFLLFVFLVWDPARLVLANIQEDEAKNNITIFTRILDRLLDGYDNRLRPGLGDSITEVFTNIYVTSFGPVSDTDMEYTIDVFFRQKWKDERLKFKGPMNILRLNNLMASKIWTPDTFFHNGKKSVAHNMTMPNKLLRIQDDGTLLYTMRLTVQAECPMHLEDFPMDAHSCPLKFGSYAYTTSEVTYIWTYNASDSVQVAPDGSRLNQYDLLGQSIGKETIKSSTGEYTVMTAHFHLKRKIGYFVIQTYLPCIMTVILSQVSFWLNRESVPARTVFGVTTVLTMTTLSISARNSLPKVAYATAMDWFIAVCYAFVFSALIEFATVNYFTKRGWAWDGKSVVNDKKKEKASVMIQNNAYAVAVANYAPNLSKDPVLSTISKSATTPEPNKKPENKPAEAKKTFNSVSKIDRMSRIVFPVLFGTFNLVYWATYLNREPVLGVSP
Assay [9] deals with T5, Gamma-aminobutyric acid receptor subunit alpha-1/alpha-2/beta-2/gamma-2. It is filed as functional, cell-based. The source holds these as a separate data set.
The target of assay [10] is T6, Peroxisome proliferator-activated receptor gamma (Homo sapiens, UniProt P37231).
T6 sequence (P37231 whole entry): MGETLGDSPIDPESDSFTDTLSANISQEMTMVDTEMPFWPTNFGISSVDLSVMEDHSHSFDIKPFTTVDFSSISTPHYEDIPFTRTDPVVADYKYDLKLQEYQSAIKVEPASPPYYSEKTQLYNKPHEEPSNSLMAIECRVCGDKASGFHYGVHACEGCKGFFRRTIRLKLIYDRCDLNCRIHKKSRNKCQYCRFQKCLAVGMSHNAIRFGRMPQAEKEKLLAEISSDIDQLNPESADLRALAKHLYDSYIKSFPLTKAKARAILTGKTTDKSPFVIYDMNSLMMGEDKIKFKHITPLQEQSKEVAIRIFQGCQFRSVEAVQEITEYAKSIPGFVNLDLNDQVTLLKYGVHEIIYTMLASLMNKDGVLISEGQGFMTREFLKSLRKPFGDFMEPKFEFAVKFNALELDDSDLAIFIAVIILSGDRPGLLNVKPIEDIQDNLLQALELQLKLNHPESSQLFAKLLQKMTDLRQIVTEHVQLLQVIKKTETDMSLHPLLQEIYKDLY
It is filed as functional.

The target of assay [11] is T6, Peroxisome proliferator-activated receptor gamma. It is filed as functional. The source holds these as a separate data set.

One may read the AC50 as the concentration giving half of the maximal activity seen.

Each structure is given as a SMILES string. A value given as a limit tells only on which side of the number the result lay.
Also: assay procedure not described here.

D(1A) dopamine receptor, sequence (P21728 whole entry): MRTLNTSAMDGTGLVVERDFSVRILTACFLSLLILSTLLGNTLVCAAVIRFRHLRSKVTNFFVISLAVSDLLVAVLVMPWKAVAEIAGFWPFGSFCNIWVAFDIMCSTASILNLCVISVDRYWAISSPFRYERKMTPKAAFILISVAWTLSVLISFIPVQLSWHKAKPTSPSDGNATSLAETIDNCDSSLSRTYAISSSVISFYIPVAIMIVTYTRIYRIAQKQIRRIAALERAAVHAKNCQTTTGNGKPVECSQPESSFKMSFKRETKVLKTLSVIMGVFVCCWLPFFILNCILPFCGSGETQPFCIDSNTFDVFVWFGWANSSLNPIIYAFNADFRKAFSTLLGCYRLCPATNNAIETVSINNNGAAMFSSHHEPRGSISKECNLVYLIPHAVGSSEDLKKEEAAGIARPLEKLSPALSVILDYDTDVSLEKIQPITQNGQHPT

As for `C[C@@H](O)[C@H]1C(=O)N2C(C(=O)O)=C(S[C@@H]3CN[C@H](C(=O)Nc4cccc(C(=O)O)c4)C3)[C@H](C)[C@H]12`, the AC50 in assay [1], in assay [2] and in assay [3] was over 30 µM each time.

With `CC(=O)OC1CN2CCC1CC2` (stereo not given) [ACECLIDINE], the AC50 in assay [2] and in assay [3] was over 30 µM each time.

Regarding `N=C(N)NC(=O)c1nc(Cl)c(N)nc1N` [AMILORIDE], the AC50 in assay [4] is over 10 µM; in assay [5], 5.63 µM; in assay [6] it was over 10 µM; in assay [7], over 10 µM.

Consider `CC(=O)Nc1ccc(/C=N/NC(N)=S)cc1` [AMITHIOZONE], for which the AC50 in [1], in [2] and in [3] was over 30 µM throughout.

As to `CC(C)(C)NCC(O)COc1ccccc1C#N` (stereo not given) [BUNITROLOL], the AC50 in assay [8] and in [9] was over 30 µM each time.

For `C[C@]12C=CC(=O)C=C1C(Cl)=C[C@@H]1[C@@H]2[C@@H](O)C[C@@]2(C)[C@H]1CC[C@]2(O)C(=O)CO` [CLOPREDNOL], the AC50 in assay [8], in assay [10] and in [11] was over 30 µM throughout.

Regarding `COc1cccc2c1C(=O)c1c(O)c3c(c(O)c1C2=O)C[C@@](O)(C(=O)CO)C[C@@H]3O[C@H]1C[C@H](N)[C@H](O)[C@H](C)O1` [DOXORUBICIN], the AC50 in assay [4] is over 10 µM; in [6], over 10 µM; in assay [10], over 10 µM; in assay [11] it was over 30 µM.

As for `C[C@]12CCC(=O)C=C1[C@@H]1C[C@@H]1[C@H]1[C@@H]3[C@@H]4C[C@@H]4[C@@]4(CCC(=O)O4)[C@@]3(C)CC[C@@H]12` [DROSPIRENONE], the AC50 in [5] was over 30 µM.

For the compound `CC(C)(Oc1ccc(Cl)cc1)C(=O)OCCOC(=O)c1cccnc1` [ETOFIBRATE], the AC50 in assay [10] and in assay [11] was over 30 µM each time.

As for `CSCC[C@H](N)C(=O)O` [METHIONINE], the AC50 in assay [1], in assay [2] and in assay [3] was over 30 µM in each case.

`COc1ccc(C(=O)c2ccccc2)c(O)c1` [OXYBENZONE]: the AC50 in [8] and in assay [9] was over 30 µM in each case.

Turning to `OC(CN1CCCCC1)c1cc(-c2ccccc2)on1` (stereo not given) [PERISOXAL], the figures for the half-maximal activity concentration (AC50) in assay [1], in [2] and in [3] were 20.4 µM, 3.86 µM and over 30 µM, respectively.

For the compound `C[C@]12C=CC(=O)C=C1CC[C@@H]1[C@@H]2[C@@H](O)C[C@@]2(C)[C@H]1CC[C@]2(O)C(=O)CO` [PREDNISOLONE], the AC50 in assay [6] and in assay [7] was over 10 µM each time.

`CCC(=O)c1ccc2c(c1)N(CC(C)N(C)C)c1ccccc1S2` (stereo not given) [PROPIOMAZINE]: in assay [7], the AC50 was 0.265 µM.

Take `Cc1ccc(O)c([C@H](CCN(C(C)C)C(C)C)c2ccccc2)c1` [TOLTERODINE]: the AC50 in [4], in [5] and in assay [6] was over 10 µM throughout.

As for `Oc1cc(Cl)ccc1Oc1ccc(Cl)cc1Cl` [TRICLOSAN], the AC50 in assay [8] and in assay [9] was over 30 µM in each case.
